The target of the assay is T1, exo− E. coli Polymerase I, Klenow fragment (Escherichia coli, UniProt P00582, D355A/E357A).
T1 construct: 12.5 U exo^− E. coli Polymerase I, Klenow fragment (Epicentre); purchased Epicentre
The experiment in a line: Primer extension: incorporation of 3′ thiol-nucleoside triphosphate into a growing DNA strand by DNA polymerase. Type of assay: biochemical. The protocol: DNA synthesis was performed on a single-stranded DNA template (5′-TTTTTTCTAAGGTAGCGACTGTCCTATACAGACTGACAAAAAAAGAGAATGAGGAACCCGGGGCAG-3′) (SEQ ID NO:1), which was labeled at its 5′ end with a dual biotin tag and was attached to a magnetic bead (FIG. 3B). Synthesis was primed using a primer (5′-CTGCCCCGGGTTCCTCATTCTCT-3′) (SEQ ID NO:2), which was complementary to a portion of the DNA template. The primer was labeled with Cy5 at its 5′ end. The DNA template contained 5 adenine nucleotides immediately downstream of the primer sequence. […]

T1 sequence (P00582 324-928 D355A/E357A): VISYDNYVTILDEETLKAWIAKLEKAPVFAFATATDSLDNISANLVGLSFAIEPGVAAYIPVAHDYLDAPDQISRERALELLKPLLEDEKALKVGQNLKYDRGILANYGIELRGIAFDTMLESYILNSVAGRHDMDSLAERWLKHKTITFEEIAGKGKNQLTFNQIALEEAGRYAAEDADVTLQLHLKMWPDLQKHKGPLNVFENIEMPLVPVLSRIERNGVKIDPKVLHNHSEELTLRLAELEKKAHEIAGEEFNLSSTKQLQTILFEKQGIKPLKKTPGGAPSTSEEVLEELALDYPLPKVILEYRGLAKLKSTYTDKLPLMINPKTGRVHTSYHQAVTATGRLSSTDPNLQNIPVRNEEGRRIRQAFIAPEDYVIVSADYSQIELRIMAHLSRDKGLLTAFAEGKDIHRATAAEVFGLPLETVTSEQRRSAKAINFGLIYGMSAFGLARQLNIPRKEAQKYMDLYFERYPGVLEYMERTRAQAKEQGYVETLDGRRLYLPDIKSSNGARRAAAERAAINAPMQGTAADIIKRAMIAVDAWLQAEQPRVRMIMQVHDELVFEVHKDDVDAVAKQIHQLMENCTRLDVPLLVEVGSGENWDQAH

`CSS[C@H]1C[C@H](n2cc(C)c(=O)[nH]c2=O)O[C@@H]1CO` [3′-deoxy-dithiomethyl thymidine]: the “modified thymidine residues in the vast majority of reaction products” value (higher concentration 1.0 mM (FIG. 3E)) was determined as 5. The “number of 3′-deoxy-dithiomethyl thymidine nucleotides incorporated into the DNA product” value (template with 5 adenines downstream of primer, 37° C., 4.0 min) was “Up to five”.

Values taken from patent publication US20100298551A1, “Methods Of Producing And Sequencing Modified Polynucleotides” (priority 2005, published 2010).
